Measurements as given in patent US20100267561A1, “HERBICIDAL PYRIDAZINONE DERIVATIVES” (priority 2007, published 2010).

What was measured:
Assay type in all cases: in vivo
[1] = tested on: large crabgrass (Digitaria sanguinalis); experiment: Test A pre-/postemergence plant response
Procedure, shortened: (§1)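 Seeds were planted in blended loam soil and sand, then treated preemergence by directed soil spray. At that time, emerged plants (one- to two-leaf, 2–10 cm) received postemergence applications of the same surfactant-containing formulation. Injury was assessed visually on a 0–100 scale after approximately 10 days.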

[2] = tested on: barnyardgrass (Echinochloa crus-galli); experiment: Test A pre-/postemergence plant response
Procedure, shortened: as §1

[3] = tested on: velvetleaf (Abutilon theophrasti); experiment: Test A pre-/postemergence plant response
Procedure, shortened: as §1

[4] = tested on: giant foxtail (Setaria faberi); experiment: Test A pre-/postemergence plant response
Procedure, shortened: as §1

[5] = tested on: morningglory (Ipomoea coccinea); experiment: Test A pre-/postemergence plant response
Procedure, shortened: as §1

[6] = tested on: pigweed (Amaranthus retroflexus); experiment: Test A pre-/postemergence plant response
Procedure, shortened: as §1

[7] = tested on: wheat (Triticum aestivum); experiment: Test A pre-/postemergence plant response
Procedure, shortened: as §1

[8] = tested on: corn (Zea mays); experiment: Test A pre-/postemergence plant response
Procedure, shortened: as §1

[9] = tested on: barnyardgrass (Echinochloa crus-galli); experiment: Test B flooded paddy test plant response
Procedure, shortened: (§2)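 Step one: raise plants to 2 leaves. Step two: flood pots 3 cm over the soil and apply compound into the water, keeping this depth. Step three: after 13–15 greenhouse days, score visually versus controls, 0–100, where 100 means complete control.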

[10] = tested on: umbrella sedge (Cyperus difformis); experiment: Test B flooded paddy test plant response
Procedure, shortened: as §2

[11] = tested on: winter barley (Hordeum vulgare); experiment: Test B postemergence plant response; conditions: for Barley plant response rating: 8 g ai/ha, postemergence, 0-100 scale; for Plant response rating, Barley: Postemergence
Procedure, shortened: (§3)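 Scoring: 0 means no effect and 100 complete control, judged by eye against controls after 13–15 days under greenhouse conditions following postemergence application at 2–18 cm plant height.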

[12] = tested on: chickweed (Stellaria media); experiment: Test B postemergence plant response; conditions: for Chickweed plant response rating: 8 g ai/ha, postemergence, 0-100 scale; for Plant response rating, Chickweed: Postemergence
Procedure, shortened: as §3

[13] = tested on: canarygrass (Phalaris minor); experiment: Test B postemergence plant response; conditions: for Canarygrass plant response rating: 8 g ai/ha, postemergence, 0-100 scale; for Plant response rating, Canarygrass: Postemergence
Procedure, shortened: as §3

[14] = tested on: windgrass (Apera spica-venti); experiment: Test B postemergence plant response; conditions: for Windgrass plant response rating: 8 g ai/ha, postemergence, 0-100 scale; for Plant response rating, Windgrass: Postemergence
Procedure, shortened: as §3

[15] = Postemergence, 125 g ai/ha, 0 to 100 scale, 0 no effect, 100 complete control
[16] = Postemergence, 500 g ai/ha, 0 to 100 scale, 0 no effect, 100 complete control
[17] = Preemergence, 125 g ai/ha, 0 to 100 scale (0 no effect, 100 complete control)
[18] = Preemergence, 500 g ai/ha, 0 to 100 scale (0 no effect, 100 complete control)
[19] = Flood (flooded paddy test), 62 g ai/ha, scale 0 to 100, 0 no effect, 100 complete control
[20] = Flood (flooded paddy test), 125 g ai/ha, scale 0 to 100, 0 no effect, 100 complete control
[21] = Flood (flooded paddy test), 250 g ai/ha, scale 0 to 100, 0 no effect, 100 complete control
[22] = Flood, 31 g ai/ha, scale 0 to 100
[23] = 16 g ai/ha, scale 0 to 100, 0 no effect, 100 complete control
[24] = 31 g ai/ha, scale 0 to 100, 0 no effect, 100 complete control
[25] = 62 g ai/ha, scale 0 to 100, 0 no effect, 100 complete control
[26] = Postemergence, 31 g ai/ha, 0 to 100 scale (0 no effect, 100 complete control)
[27] = Preemergence, 31 g ai/ha, 0 to 100 scale, 0 is no effect, 100 is complete control

Cn1ncc(O)c(-c2nn(-c3ccc(Cl)cc3)cc2Cl)c1=O [Compound 28]
Plant response rating, Crabgrass, Large [1, 15]: 80 | Plant response rating, Crabgrass, Large [1, 16]: 90 | Plant response rating, Crabgrass, Large [1, 17]: 90 | Plant response rating, Crabgrass, Large [1, 18]: 100 | Plant response rating, Barnyardgrass [2, 15]: 60 | Plant response rating, Barnyardgrass [2, 16]: 100 | Plant response rating, Barnyardgrass [2, 17]: 100 | Plant response rating, Barnyardgrass [2, 18]: 100 | Plant response rating, Velvetleaf [3, 15]: 0 | Plant response rating, Velvetleaf [3, 16]: 0 | Plant response rating, Velvetleaf [3, 17]: 0 | Plant response rating, Velvetleaf [3, 18]: 20 | Plant response rating, Foxtail, Giant [4, 15]: 90 | Plant response rating, Foxtail, Giant [4, 16]: 90 | Plant response rating, Foxtail, Giant [4, 17]: 100 | Plant response rating, Foxtail, Giant [4, 18]: 100 | Plant response rating, Morningglory [5, 15]: 0 | Plant response rating, Morningglory [5, 16]: 30 | Plant response rating, Morningglory [5, 18]: 0 | Plant response rating, Pigweed [6, 15]: 0 | Plant response rating, Pigweed [6, 16]: 0 | Plant response rating, Pigweed [6, 17]: 0 | Plant response rating, Pigweed [6, 18]: 0 | Plant response rating, Wheat [7, 15]: 50 | Plant response rating, Wheat [7, 16]: 70 | Plant response rating, Wheat [7, 17]: 70 | Plant response rating, Wheat [7, 18]: 100 | Plant response rating, Corn [8, 15]: 40 | Plant response rating, Corn [8, 16]: 90 | Plant response rating, Corn [8, 17]: 80 | Plant response rating, Corn [8, 18]: 90 | Plant response rating, Barnyardgrass [9, 19]: 0 | Plant response rating, Barnyardgrass [9, 20]: 0 | Plant response rating, Barnyardgrass [9, 21]: 30 | Plant response rating, Barnyardgrass [9, 22]: 0 | Plant response rating, Sedge, Umbrella [10, 19]: 0 | Plant response rating, Sedge, Umbrella [10, 20]: 0 | Plant response rating, Sedge, Umbrella [10, 21]: 0 | Plant response rating, Sedge, Umbrella [10, 22]: 0 | Barley plant response rating [11]: 0 | Plant response rating, Barley [11, 23]: 0 | Plant response rating, Barley [11, 24]: 50 | Chickweed plant response rating [12]: 0 | Plant response rating, Chickweed ([12]; 16 g ai/ha, scale 0 to 100): 0 | Plant response rating, Chickweed [12, 24]: 0 | Plant response rating, Chickweed [12, 25]: 0 | Canarygrass plant response rating [13]: 0 | Plant response rating, Canarygrass ([13]; 16 g ai/ha, scale 0 to 100): 0 | Plant response rating, Canarygrass [13, 24]: 50 | Windgrass plant response rating [14]: 0 | Plant response rating, Windgrass ([14]; 16 g ai/ha, scale 0 to 100): 35 | Plant response rating, Windgrass [14, 25]: 85

Cc1cc(-c2ccc(Cl)cc2)nn1-c1c(OS(C)(=O)=O)cnn(C)c1=O [Compound 36]
Plant response rating, Crabgrass, Large [1, 26]: 80 | Plant response rating, Crabgrass, Large [1, 15]: 90 | Plant response rating, Crabgrass, Large [1, 27]: 70 | Plant response rating, Crabgrass, Large [1, 17]: 100 | Plant response rating, Barnyardgrass [2, 26]: 80 | Plant response rating, Barnyardgrass [2, 15]: 100 | Plant response rating, Barnyardgrass [2, 27]: 90 | Plant response rating, Barnyardgrass [2, 17]: 100 | Plant response rating, Velvetleaf [3, 26]: 0 | Plant response rating, Velvetleaf [3, 15]: 0 | Plant response rating, Velvetleaf [3, 27]: 0 | Plant response rating, Velvetleaf [3, 17]: 0 | Plant response rating, Foxtail, Giant [4, 26]: 90 | Plant response rating, Foxtail, Giant [4, 15]: 90 | Plant response rating, Foxtail, Giant [4, 27]: 100 | Plant response rating, Foxtail, Giant [4, 17]: 100 | Plant response rating, Morningglory [5, 15]: 0 | Plant response rating, Morningglory [5, 27]: 0 | Plant response rating, Morningglory [5, 17]: 0 | Plant response rating, Pigweed [6, 26]: 0 | Plant response rating, Pigweed [6, 15]: 10 | Plant response rating, Pigweed [6, 27]: 0 | Plant response rating, Pigweed [6, 17]: 30 | Plant response rating, Wheat [7, 26]: 0 | Plant response rating, Wheat [7, 15]: 60 | Plant response rating, Wheat [7, 27]: 50 | Plant response rating, Wheat [7, 17]: 90 | Plant response rating, Corn [8, 26]: 50 | Plant response rating, Corn [8, 15]: 80 | Plant response rating, Corn [8, 27]: 50 | Plant response rating, Corn [8, 17]: 80 | Plant response rating, Barnyardgrass [9, 19]: 0 | Plant response rating, Barnyardgrass [9, 20]: 0 | Plant response rating, Barnyardgrass [9, 21]: 0 | Plant response rating, Barnyardgrass [9, 22]: 0 | Plant response rating, Sedge, Umbrella [10, 19]: 0 | Plant response rating, Sedge, Umbrella [10, 20]: 0 | Plant response rating, Sedge, Umbrella [10, 21]: 0 | Plant response rating, Sedge, Umbrella [10, 22]: 0 | Barley plant response rating [11]: 0 | Plant response rating, Barley [11, 23]: 0 | Plant response rating, Barley [11, 24]: 15 | Plant response rating, Barley [11, 25]: 15 | Chickweed plant response rating [12]: 0 | Plant response rating, Chickweed ([12]; 16 g ai/ha, scale 0 to 100): 0 | Plant response rating, Chickweed [12, 24]: 0 | Plant response rating, Chickweed [12, 25]: 0 | Canarygrass plant response rating [13]: 0 | Plant response rating, Canarygrass ([13]; 16 g ai/ha, scale 0 to 100): 0 | Plant response rating, Canarygrass [13, 24]: 10 | Plant response rating, Canarygrass [13, 25]: 10 | Windgrass plant response rating [14]: 0 | Plant response rating, Windgrass ([14]; 16 g ai/ha, scale 0 to 100): 0 | Plant response rating, Windgrass [14, 25]: 65

CCc1cc(-c2ccc(C(F)(F)F)cc2)nn1-c1c(OS(C)(=O)=O)cnn(C)c1=O [Compound 19]
Plant response rating, Crabgrass, Large [1, 15]: 90 | Plant response rating, Crabgrass, Large [1, 16]: 100 | Plant response rating, Crabgrass, Large [1, 17]: 100 | Plant response rating, Crabgrass, Large [1, 18]: 100 | Plant response rating, Barnyardgrass [2, 15]: 100 | Plant response rating, Barnyardgrass [2, 16]: 100 | Plant response rating, Barnyardgrass [2, 17]: 100 | Plant response rating, Barnyardgrass [2, 18]: 100 | Plant response rating, Velvetleaf [3, 15]: 0 | Plant response rating, Velvetleaf [3, 16]: 0 | Plant response rating, Velvetleaf [3, 17]: 0 | Plant response rating, Velvetleaf [3, 18]: 0 | Plant response rating, Foxtail, Giant [4, 15]: 100 | Plant response rating, Foxtail, Giant [4, 16]: 100 | Plant response rating, Foxtail, Giant [4, 17]: 100 | Plant response rating, Foxtail, Giant [4, 18]: 100 | Plant response rating, Morningglory [5, 15]: 0 | Plant response rating, Morningglory [5, 16]: 0 | Plant response rating, Morningglory [5, 17]: 0 | Plant response rating, Morningglory [5, 18]: 0 | Plant response rating, Pigweed [6, 15]: 0 | Plant response rating, Pigweed [6, 16]: 0 | Plant response rating, Pigweed [6, 17]: 0 | Plant response rating, Pigweed [6, 18]: 0 | Plant response rating, Wheat [7, 15]: 60 | Plant response rating, Wheat [7, 16]: 90 | Plant response rating, Wheat [7, 17]: 90 | Plant response rating, Wheat [7, 18]: 100 | Plant response rating, Corn [8, 15]: 90 | Plant response rating, Corn [8, 16]: 90 | Plant response rating, Corn [8, 17]: 80 | Plant response rating, Corn [8, 18]: 90 | Plant response rating, Barnyardgrass [9, 19]: 30 | Plant response rating, Barnyardgrass [9, 20]: 60 | Plant response rating, Barnyardgrass [9, 21]: 75 | Plant response rating, Barnyardgrass [9, 22]: 0 | Plant response rating, Sedge, Umbrella [10, 19]: 30 | Plant response rating, Sedge, Umbrella [10, 20]: 60 | Plant response rating, Sedge, Umbrella [10, 21]: 70 | Plant response rating, Sedge, Umbrella [10, 22]: 0 | Barley plant response rating [11]: 0 | Plant response rating, Barley [11, 23]: 5 | Plant response rating, Barley [11, 24]: 5 | Plant response rating, Barley ([11]; 62 g ai/ha, scale 0 to 100): 90 | Chickweed plant response rating [12]: 0 | Plant response rating, Chickweed ([12]; 16 g ai/ha, scale 0 to 100): 0 | Plant response rating, Chickweed ([12]; 62 g ai/ha, scale 0 to 100): 0 | Canarygrass plant response rating [13]: 0 | Plant response rating, Canarygrass ([13]; 16 g ai/ha, scale 0 to 100): 20 | Plant response rating, Canarygrass [13, 24]: 20 | Plant response rating, Canarygrass ([13]; 62 g ai/ha, scale 0 to 100): 100 | Windgrass plant response rating [14]: 90 | Plant response rating, Windgrass ([14]; 16 g ai/ha, scale 0 to 100): 95 | Plant response rating, Windgrass [14, 24]: 100 | Plant response rating, Windgrass ([14]; 62 g ai/ha, scale 0 to 100): 100
